This passage reports IC50 results from US20240261294A1, “METHOD FOR TREATING IDH INHIBITOR-RESISTANT SUBJECTS” (Eli Lilly and Company, priority 2021, published 2024).

Assay [1] addresses T1, IDH2 R140Q_I319M cis (Homo sapiens, UniProt P48735, I319M/R140Q).
T1 construct: expressed in transfected cells; host or cells: U-87 MG
T1 sequence (P48735 40-452 R140Q/I319M): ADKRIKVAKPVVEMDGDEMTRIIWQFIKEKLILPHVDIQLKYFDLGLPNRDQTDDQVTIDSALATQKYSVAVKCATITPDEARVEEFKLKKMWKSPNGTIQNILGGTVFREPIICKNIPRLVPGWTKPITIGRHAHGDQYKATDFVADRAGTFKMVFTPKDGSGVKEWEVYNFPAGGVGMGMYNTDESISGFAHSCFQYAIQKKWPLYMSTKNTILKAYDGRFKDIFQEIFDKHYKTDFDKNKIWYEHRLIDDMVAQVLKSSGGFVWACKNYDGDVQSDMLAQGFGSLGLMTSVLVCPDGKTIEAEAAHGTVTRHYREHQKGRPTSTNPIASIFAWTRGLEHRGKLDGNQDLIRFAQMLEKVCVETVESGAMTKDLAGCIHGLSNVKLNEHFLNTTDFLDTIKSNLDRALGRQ
Kind of assay: Inhibition of 2-HG production in IDH2 mutant U-87 MG cells. It counts as cell-based.

Assay [2] deals with T2, IDH2 R172W (Homo sapiens, UniProt P48735, R172W).
T2 construct: expressed in transfected cells; host or cells: U-87 MG
T2 sequence (P48735 40-452 R172W): T1 sequence (P48735 40-452 R140Q/I319M) with Q101R, R133W, M280I
The description is as above. It counts as cell-based. Conditions: read-out: Relative IC50 (nM) Mean, inhibition of 2-HG production.

Structures are written as SMILES. Positions count from the first letter of the chain named. Like-named read-outs stand apart in the source and are kept apart here.

Broadly, the IC50 is the concentration that inhibits the measured activity by half. As for `C=CC(=O)N1CCN([C@@H](CC2CC2)c2ccc([C@H](C)Nc3ncc4c(n3)N(CC)C(=O)OC4)cc2)CC1` [Compound A, 7-[[(1S)-1-[4-[(1S)-2-cyclopropyl-1-(4-prop-2-enoylpiperazin-1-yl)ethyl]phenyl]ethyl]amino]-1-ethyl-4H-pyrimido[4,5-d][1,3]oxazin-2-one], the IC50 is 29 nM in assay [1] (16 hours incubation, 50K cells/well, 100 μl media/well, read-out: Relative IC50 (nM) Mean, inhibition of 2-HG production); 30.4 nM in assay [1] (72 hours incubation, 12.5K cells/well, 150 μl media/well, read-out: IC50, inhibition of 2-HG production); 336 nM in assay [2] (16 hours incubation, 50K cells/well, 100 μl media/well); 47 nM in assay [2] (72 hours incubation, 12.5K cells/well).
